Results: patent publication US20220024980A1, “LIPO-GLYCOPEPTIDE CLEAVABLE DERIVATIVES AND USES THEREOF” (INSMED INCORPORATED, priority 2018, published 2022)
Converted amounts (≈) assume the structure as drawn.

Tested on: MRSA (USA300 ATCC BAA-1556)
Assay: Minimum inhibitory concentrations against MRSA by broth microdilution
Assay type: cell-based, Staphylococcus aureus
Settings: Mueller Hinton II broth with 0.002% (v/v) Polysorbate-, compound = scaffold with R′ and R″ (table column)
Description: Example 7—Minimum Inhibitory Concentrations Against MRSA Determined Using Broth Microdilution
In vitro activities were determined using CLSJ-guided broth susceptibility testing to measure drug minimum inhibitory concentrations (MICs) of compounds against MRSA (USA300 ATCC BAA-1556). The test medium used for the MIC assay was Mueller Hinton II broth made with 0.002% (v/v) Polysorbate-. Media was prepared fresh on the day of testing and stored according to guidelines from CLSJ.

CCCCCCCCCCCC(=O)NCCNC1(C)CC(OC2C(Oc3c4cc5cc3Oc3ccc(cc3Cl)C(O)C3NC(=O)C(NC(=O)C5NC(=O)C(CC(N)=O)NC(=O)C(NC(=O)C(CC(C)C)NC)C(O)c5ccc(c(Cl)c5)O4)c4ccc(O)c(c4)-c4c(O)cc(O)cc4C(C(=O)O)NC3=O)OC(CO)C(O)C2O)OC(C)C1O (centres unmarked) [RV62 (R″ = H)]
MIC: 0.016 µg/mL (≈ 0.00955 µM)

CCCCCCCCCCCCNC(=O)CNC1(C)CC(OC2C(Oc3c4cc5cc3Oc3ccc(cc3Cl)C(O)C3NC(=O)C(NC(=O)C5NC(=O)C(CC(N)=O)NC(=O)C(NC(=O)C(CC(C)C)NC)C(O)c5ccc(c(Cl)c5)O4)c4ccc(O)c(c4)-c4c(O)cc(O)cc4C(C(=O)O)NC3=O)OC(CO)C(O)C2O)OC(C)C1O (centres unmarked) [RV95 (R″ = H)]
MIC: 0.031 µg/mL (≈ 0.0185 µM)
